Tests used:
[1] = target: Beta-1 adrenergic receptor (Homo sapiens, UniProt P08588); assay type: functional, cell-based
[2] = target: T1, Androgen receptor (Rattus norvegicus, UniProt P15207)
T1 sequence (P15207 whole entry): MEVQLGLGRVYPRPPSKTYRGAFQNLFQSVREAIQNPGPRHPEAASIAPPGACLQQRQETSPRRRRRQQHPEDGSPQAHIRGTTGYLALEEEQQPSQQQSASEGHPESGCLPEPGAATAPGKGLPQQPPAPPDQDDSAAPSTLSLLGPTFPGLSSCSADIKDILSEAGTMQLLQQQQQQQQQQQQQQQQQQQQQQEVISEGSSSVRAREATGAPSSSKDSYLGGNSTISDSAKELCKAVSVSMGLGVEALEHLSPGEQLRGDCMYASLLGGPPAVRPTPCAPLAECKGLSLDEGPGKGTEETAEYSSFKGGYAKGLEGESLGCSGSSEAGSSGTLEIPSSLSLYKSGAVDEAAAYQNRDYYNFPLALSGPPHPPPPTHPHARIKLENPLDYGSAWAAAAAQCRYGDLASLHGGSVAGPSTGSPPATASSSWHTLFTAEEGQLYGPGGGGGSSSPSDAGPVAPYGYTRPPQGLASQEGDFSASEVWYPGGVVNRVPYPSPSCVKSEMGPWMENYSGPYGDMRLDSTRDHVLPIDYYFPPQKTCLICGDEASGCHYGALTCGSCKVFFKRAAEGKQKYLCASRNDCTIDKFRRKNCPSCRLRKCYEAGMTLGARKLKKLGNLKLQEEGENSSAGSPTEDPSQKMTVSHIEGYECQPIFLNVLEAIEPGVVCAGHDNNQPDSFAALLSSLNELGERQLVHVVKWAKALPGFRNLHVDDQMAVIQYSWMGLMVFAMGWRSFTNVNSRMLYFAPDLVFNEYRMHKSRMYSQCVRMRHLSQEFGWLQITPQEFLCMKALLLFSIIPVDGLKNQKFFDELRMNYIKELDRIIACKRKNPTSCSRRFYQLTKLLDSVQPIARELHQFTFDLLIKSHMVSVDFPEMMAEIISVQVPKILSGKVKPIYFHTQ

[3] = target: T2, Neuropeptide Y receptor type 2 (Homo sapiens, UniProt P49146)
T2 sequence (P49146 whole entry): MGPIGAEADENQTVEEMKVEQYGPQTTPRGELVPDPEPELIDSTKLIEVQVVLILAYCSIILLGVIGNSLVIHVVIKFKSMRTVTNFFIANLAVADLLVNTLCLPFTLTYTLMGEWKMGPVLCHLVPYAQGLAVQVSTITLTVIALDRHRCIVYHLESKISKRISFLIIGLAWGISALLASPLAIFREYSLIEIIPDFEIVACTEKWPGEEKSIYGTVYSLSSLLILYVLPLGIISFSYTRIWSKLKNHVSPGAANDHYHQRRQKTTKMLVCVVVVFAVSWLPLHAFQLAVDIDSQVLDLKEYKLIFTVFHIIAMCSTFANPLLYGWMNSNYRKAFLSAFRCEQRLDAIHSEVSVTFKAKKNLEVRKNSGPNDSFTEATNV

[4] = target: Neurotensin receptor type 1 (Homo sapiens, UniProt P30989)
Chain of Neurotensin receptor type 1 (P30989 whole entry): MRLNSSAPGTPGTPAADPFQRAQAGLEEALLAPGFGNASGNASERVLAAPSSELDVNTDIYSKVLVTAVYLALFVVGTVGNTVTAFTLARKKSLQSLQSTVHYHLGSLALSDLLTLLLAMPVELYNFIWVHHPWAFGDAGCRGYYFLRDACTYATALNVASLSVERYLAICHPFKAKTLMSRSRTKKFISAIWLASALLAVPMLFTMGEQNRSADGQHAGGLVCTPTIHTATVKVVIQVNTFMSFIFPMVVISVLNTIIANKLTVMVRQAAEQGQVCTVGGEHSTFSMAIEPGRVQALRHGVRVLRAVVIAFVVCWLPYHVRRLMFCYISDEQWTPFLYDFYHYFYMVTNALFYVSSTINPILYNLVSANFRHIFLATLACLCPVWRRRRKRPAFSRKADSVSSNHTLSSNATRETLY

[5] = target: T3, B1 bradykinin receptor (Homo sapiens, UniProt P46663)
T3 sequence (P46663 whole entry): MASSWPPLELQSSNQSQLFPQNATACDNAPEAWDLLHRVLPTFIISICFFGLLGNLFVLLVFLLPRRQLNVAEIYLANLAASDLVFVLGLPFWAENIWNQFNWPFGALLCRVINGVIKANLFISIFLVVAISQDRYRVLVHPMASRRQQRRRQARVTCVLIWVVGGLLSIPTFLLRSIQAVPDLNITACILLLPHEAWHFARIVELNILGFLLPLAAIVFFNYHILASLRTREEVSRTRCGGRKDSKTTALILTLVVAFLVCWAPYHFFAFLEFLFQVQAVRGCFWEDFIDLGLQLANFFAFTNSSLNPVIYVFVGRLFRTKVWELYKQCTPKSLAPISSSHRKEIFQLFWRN

[6] = target: T4, Muscarinic acetylcholine receptor M2 (Homo sapiens, UniProt P08172)
T4 sequence (P08172 whole entry): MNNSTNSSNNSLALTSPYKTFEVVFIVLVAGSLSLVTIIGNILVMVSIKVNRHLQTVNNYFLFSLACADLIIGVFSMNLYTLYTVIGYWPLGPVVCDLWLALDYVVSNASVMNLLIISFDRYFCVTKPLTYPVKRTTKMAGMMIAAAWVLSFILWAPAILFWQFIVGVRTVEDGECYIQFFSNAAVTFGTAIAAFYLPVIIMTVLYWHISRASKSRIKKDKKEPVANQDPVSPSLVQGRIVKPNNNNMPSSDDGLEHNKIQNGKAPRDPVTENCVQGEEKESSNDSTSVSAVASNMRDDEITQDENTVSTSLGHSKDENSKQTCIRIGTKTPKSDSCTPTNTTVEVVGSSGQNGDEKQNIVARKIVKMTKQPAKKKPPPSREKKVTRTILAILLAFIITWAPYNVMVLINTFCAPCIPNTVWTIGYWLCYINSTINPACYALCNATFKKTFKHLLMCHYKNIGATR

[7] = target: Histamine H2 receptor (Homo sapiens, UniProt P25021)
Chain of Histamine H2 receptor (P25021 whole entry): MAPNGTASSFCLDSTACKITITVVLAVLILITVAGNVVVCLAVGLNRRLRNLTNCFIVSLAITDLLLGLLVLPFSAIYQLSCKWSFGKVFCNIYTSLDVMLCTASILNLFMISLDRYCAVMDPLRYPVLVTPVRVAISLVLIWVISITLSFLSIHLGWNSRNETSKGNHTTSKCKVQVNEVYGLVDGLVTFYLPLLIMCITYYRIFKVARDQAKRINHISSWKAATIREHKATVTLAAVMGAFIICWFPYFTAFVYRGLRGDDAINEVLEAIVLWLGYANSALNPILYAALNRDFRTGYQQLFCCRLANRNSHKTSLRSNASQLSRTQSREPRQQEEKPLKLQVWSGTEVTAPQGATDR

[8] = target: 5-hydroxytryptamine receptor 6 (Homo sapiens, UniProt P50406)
Chain of 5-hydroxytryptamine receptor 6 (P50406 whole entry): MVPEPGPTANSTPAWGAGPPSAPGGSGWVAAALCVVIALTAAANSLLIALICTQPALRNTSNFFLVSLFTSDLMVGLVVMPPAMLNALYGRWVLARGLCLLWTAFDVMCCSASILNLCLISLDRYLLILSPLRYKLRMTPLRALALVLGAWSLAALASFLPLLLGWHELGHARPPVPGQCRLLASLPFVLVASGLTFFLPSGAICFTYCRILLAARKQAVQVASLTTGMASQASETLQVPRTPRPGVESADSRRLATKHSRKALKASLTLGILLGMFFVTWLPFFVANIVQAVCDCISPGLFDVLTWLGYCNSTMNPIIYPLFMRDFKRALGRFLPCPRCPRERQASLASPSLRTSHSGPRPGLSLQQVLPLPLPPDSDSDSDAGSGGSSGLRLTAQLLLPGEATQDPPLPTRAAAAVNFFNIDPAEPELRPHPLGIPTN

[9] = target: Substance-P receptor (Homo sapiens, UniProt P25103)
Chain of Substance-P receptor (P25103 whole entry): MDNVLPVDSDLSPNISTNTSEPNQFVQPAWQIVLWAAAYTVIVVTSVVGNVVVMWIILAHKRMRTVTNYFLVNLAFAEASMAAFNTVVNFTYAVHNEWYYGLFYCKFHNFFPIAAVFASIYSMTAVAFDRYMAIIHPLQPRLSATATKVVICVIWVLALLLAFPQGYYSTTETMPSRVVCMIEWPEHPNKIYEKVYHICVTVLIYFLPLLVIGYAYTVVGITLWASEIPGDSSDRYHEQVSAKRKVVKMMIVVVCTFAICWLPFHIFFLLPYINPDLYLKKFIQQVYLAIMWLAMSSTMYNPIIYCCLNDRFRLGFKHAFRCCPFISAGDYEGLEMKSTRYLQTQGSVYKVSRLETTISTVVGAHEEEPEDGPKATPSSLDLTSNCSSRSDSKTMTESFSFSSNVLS

[10] = target: T5, Corticotropin-releasing factor receptor 1 (Homo sapiens, UniProt P34998)
T5 sequence (P34998 whole entry): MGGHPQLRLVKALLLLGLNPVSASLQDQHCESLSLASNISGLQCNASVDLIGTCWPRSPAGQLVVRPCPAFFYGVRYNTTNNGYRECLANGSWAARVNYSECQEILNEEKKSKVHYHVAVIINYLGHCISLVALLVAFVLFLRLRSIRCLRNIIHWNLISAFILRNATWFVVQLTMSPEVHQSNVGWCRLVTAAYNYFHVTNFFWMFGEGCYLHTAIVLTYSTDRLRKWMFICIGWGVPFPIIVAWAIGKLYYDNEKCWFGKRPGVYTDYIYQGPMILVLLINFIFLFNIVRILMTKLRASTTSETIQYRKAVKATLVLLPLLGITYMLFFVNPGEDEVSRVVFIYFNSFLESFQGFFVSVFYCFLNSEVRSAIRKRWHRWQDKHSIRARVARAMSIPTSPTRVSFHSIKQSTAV

[11] = target: T6, Histamine H1 receptor (Homo sapiens, UniProt P35367); assay type: functional, cell-based
T6 sequence (P35367 whole entry): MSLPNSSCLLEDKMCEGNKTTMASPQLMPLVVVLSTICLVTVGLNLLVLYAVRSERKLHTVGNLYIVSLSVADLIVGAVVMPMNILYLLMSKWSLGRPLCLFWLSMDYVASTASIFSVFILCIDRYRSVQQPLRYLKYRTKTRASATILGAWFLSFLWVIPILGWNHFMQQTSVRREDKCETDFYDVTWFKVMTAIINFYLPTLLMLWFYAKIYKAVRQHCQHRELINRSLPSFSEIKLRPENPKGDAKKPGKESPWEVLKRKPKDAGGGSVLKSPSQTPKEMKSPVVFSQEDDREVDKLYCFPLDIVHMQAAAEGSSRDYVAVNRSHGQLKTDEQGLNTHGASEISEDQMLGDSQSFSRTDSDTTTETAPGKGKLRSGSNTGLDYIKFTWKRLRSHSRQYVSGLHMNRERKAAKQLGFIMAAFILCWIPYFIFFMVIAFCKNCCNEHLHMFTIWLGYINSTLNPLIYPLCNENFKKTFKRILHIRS

[12] = target: T6, Histamine H1 receptor; assay type: functional, cell-based; remark: listed apart in the source
Further: assay procedure not described here.

Chain of Beta-1 adrenergic receptor (P08588 whole entry): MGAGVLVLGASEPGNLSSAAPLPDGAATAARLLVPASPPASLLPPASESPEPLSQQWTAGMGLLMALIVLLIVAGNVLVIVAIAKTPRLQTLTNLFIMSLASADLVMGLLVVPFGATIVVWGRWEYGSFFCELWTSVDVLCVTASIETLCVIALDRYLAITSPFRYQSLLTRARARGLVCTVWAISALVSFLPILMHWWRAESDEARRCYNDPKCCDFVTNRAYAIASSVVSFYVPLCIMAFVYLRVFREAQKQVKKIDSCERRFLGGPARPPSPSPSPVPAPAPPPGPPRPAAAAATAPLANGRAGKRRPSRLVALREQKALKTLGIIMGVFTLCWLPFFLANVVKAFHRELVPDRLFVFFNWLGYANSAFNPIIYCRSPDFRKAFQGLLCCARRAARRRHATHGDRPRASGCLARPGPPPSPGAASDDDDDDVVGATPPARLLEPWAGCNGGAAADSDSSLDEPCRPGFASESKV

Work on `COc1cc2c(N)nc(N3CCN(C(=O)OCC(C)(C)O)CC3)nc2c(OC)c1OC` [TRIMAZOSIN] yielded an AC50 [1] of over 30 µM.
Work on `COC(=O)[C@H]1[C@H]2C[C@@H]3c4[nH]c5cc(OC)ccc5c4CCN3C[C@H]2C[C@@H](OC(=O)/C=C/c2cc(OC)c(OC)c(OC)c2)[C@@H]1OC` [RESCINNAMINE] yielded an AC50 [2] of over 10 µM.
`O=C(O)C1=C(CSc2nnnn2CS(=O)(=O)O)CS[C@@H]2[C@H](NC(=O)[C@H](O)c3ccccc3)C(=O)N12` [CEFONICID] showed an AC50 [2] of over 30 µM.
With `COc1ccc2c3c1O[C@H]1[C@@H](O)C=C[C@H]4[C@@H](C2)N(C)CC[C@@]341` [CODEINE] the AC50 [3] was over 30 µM, the AC50 [4] was over 30 µM and the AC50 [5] was over 30 µM. For the same molecule, the AC50 [6] was over 10 µM, the AC50 [7] was over 10 µM and the AC50 [8] was over 10 µM. For the same molecule, the AC50 [9] was over 10 µM and the AC50 [10] was over 30 µM.
In the case of `CCC(C(=O)O)c1ccc(N2Cc3ccccc3C2=O)cc1` (configuration not stated) [INDOBUFEN], the AC50 [1] is reported as over 30 µM.
`Cn1c(=O)c2c(ncn2CC2OCCO2)n(C)c1=O` [DOXOFYLLINE] gave an AC50 [1] of over 30 µM.
`N#Cc1ccc([C@H]2CCc3cncn32)c(F)c1` [OSILODROSTAT] was tested, and the AC50 [3] was over 10 µM, the AC50 [4] was over 10 µM and the AC50 [5] was over 10 µM. It also gave an AC50 [6] of over 10 µM, an AC50 [7] of over 10 µM and an AC50 [8] of over 10 µM. The AC50 [9] was over 10 µM.
For `CN1CCC(=C2c3ccccc3CCc3sccc32)CC1` [PIZOTYLINE], the AC50 [6] was 0.059 µM, the AC50 [11] was over 30 µM and the AC50 [12] was 0.0681 µM.
Work on `O=C(O)C[C@H](O)C[C@H](O)/C=C/c1c(C2CC2)nc2ccccc2c1-c1ccc(F)cc1` [PITAVASTATIN] yielded an AC50 [2] of over 10 µM.
With `COC(=O)C1=C(C)NC(C)=C(C(=O)OC(C)(C)CN(C)CCC(c2ccccc2)c2ccccc2)C1c1cccc([N+](=O)[O-])c1` (configuration not stated) [LERCANIDIPINE] the AC50 [2] was over 30 µM.
`NCC[C@H](O)C(=O)N[C@@H]1C[C@H](N)[C@@H](O[C@H]2O[C@H](CN)[C@@H](O)[C@H](O)[C@H]2O)[C@H](O)[C@H]1O[C@H]1O[C@H](CO)[C@@H](O)[C@H](N)[C@H]1O` [AMIKACIN] gave an AC50 [2] of over 10 µM.
In the case of `CC(C)C(=O)c1c(C(C)C)nn2ccccc12` [IBUDILAST], the AC50 [1] is reported as over 30 µM.
Work on `CCOC(=O)[N-]c1cn(N2CCOCC2)n[o+]1` [MOLSIDOMINE] yielded an AC50 [1] of over 30 µM.
`CC[C@@H]1C(=O)OC[C@@H]1Cc1cncn1C` [PILOCARPINE] gave an AC50 [11] of over 30 µM and an AC50 [12] of over 30 µM.
`CC(C)OC(=O)CCC/C=C\C[C@@H]1[C@@H](CC[C@@H](O)CCc2ccccc2)[C@H](O)C[C@@H]1O` [LATANOPROST] was tested, and the AC50 [11] was over 30 µM and the AC50 [12] was over 30 µM.

Reference: ChEMBL document CHEMBL5291721, “A preclinical secondary pharmacology resource illuminates target-adverse drug reaction associations of marketed drugs” (Nat Commun, 2023)
